{
  "source": "paper PMC5218480",
  "about": "(PLoS ONE, 2017)",
  "tested_on": "MV-4-11 cells",
  "assay": "Gene expression microarray analysis (Affymetrix PrimeView) and GSEA",
  "type": "cell-based, human",
  "design": "RFU PODN (11730768_x_at) / Fold change /veh PODN (11730768_x_at) / RFU LINC00158 (11744669_a_at) / Fold change /veh LINC00158 (11744669_a_at) / RFU DUSP10 (11751237_a_at) / Fold change /veh DUSP10 (11751237_a_at) / RFU ID3 (11757404_x_at) / Fold change /veh ID3 (11757404_x_at) / RFU PLEKHG5 (11737974_s_at) / Fold change /veh PLEKHG5 (11737974_s_at) / RFU LRRC4B (11730491_at) / Fold change /veh LRRC4B (11730491_at) / RFU GIMAP4 (11747438_a_at) / Fold change /veh GIMAP4 (11747438_a_at) / RFU KRT8 (11758183_x_at) / Fold change /veh KRT8 (11758183_x_at) / RFU CNN1 (11734310_a_at) / Fold change /veh CNN1 (11734310_a_at) / RFU VPS37D (11726825_at) / Fold change /veh VPS37D (11726825_at) / RFU C10orf10 (11716522_x_at) / Fold change /veh C10orf10 (11716522_x_at) / RFU KIR2DL2 /// KIR2DL4 /// KIR2DL5A /// KIR2DL5B /// KIR2DS1 /// KIR2DS2 /// KIR2DS3 /// KIR2DS4 /// KIR3DL3 /// KIR3DL3 /// KIR3DS1 (11738374_at) / Fold change /veh KIR2DL2 /// KIR2DL4 /// KIR2DL5A /// KIR2DL5B /// KIR2DS1 /// KIR2DS2 /// KIR2DS3 /// KIR2DS4 /// KIR3DL3 /// KIR3DL3 /// KIR3DS1 (11738374_at) / RFU C1QL1 (11718748_at) / Fold change /veh C1QL1 (11718748_at) / RFU TMPRSS4 (11747572_a_at) / Fold change /veh TMPRSS4 (11747572_a_at) / RFU HAMP (11756126_x_at) / Fold change /veh HAMP (11756126_x_at) / RFU RNFT2 (11725882_a_at) / Fold change /veh RNFT2 (11725882_a_at) / RFU NR4A2 (11747474_a_at) / Fold change /veh NR4A2 (11747474_a_at) / RFU ABCC12 (11746883_a_at) / Fold change /veh ABCC12 (11746883_a_at) / RFU TMEM136 (11760407_x_at) / Fold change /veh TMEM136 (11760407_x_at) / RFU CLDN22 /// WWC2 (11732394_at) / Fold change /veh CLDN22 /// WWC2 (11732394_at) / RFU HLA-DPB1 (11760878_x_at) / Fold change /veh HLA-DPB1 (11760878_x_at) / RFU SPINT1 (11716480_a_at) / Fold change /veh SPINT1 (11716480_a_at) / RFU GAP43 (11754022_s_at) / Fold change /veh GAP43 (11754022_s_at) / RFU A4GNT (11735810_at) / Fold change /veh A4GNT (11735810_at) / RFU PRB3 (11715151_x_at) / Fold change /veh PRB3 (11715151_x_at) / RFU TUBB4B (11761932_at) / Fold change /veh TUBB4B (11761932_at) / RFU CAPN14 (11732068_a_at) / Fold change /veh CAPN14 (11732068_a_at) / RFU TMCC2 (11721928_a_at) / Fold change /veh TMCC2 (11721928_a_at) / RFU IRGQ (11745062_a_at) / Fold change /veh IRGQ (11745062_a_at) / RFU FAM174B (11720279_a_at) / Fold change /veh FAM174B (11720279_a_at) / RFU TMPRSS4 (11748680_a_at) / Fold change /veh TMPRSS4 (11748680_a_at) / RFU FAM212B (11763350_a_at) / Fold change /veh FAM212B (11763350_a_at) / RFU PLEKHG5 (11743358_a_at) / Fold change /veh PLEKHG5 (11743358_a_at) / RFU ZSCAN30 (11745921_a_at) / Fold change /veh ZSCAN30 (11745921_a_at) / RFU CMKLR1 (11741424_a_at) / Fold change /veh CMKLR1 (11741424_a_at) / RFU LOC101060620 /// MAPK8IP1 (11723275_at) / Fold change /veh LOC101060620 /// MAPK8IP1 (11723275_at) / RFU SPTSSB (11747773_x_at) / Fold change /veh SPTSSB (11747773_x_at) / RFU PRSS12 (11739890_at) / Fold change /veh PRSS12 (11739890_at) / RFU BIN1 (11741810_x_at) / Fold change /veh BIN1 (11741810_x_at) / RFU WNT11 (11732464_a_at) / Fold change /veh WNT11 (11732464_a_at) / RFU C10orf10 (11716521_a_at) / Fold change /veh C10orf10 (11716521_a_at) / RFU C5orf56 (11738089_at) / Fold change /veh C5orf56 (11738089_at) / RFU CYB561 (11721691_x_at) / Fold change /veh CYB561 (11721691_x_at) / RFU ANKRD19P (11752326_a_at) / Fold change /veh ANKRD19P (11752326_a_at) / RFU OR2T12 /// OR2T33 /// OR2T8 (11738714_s_at) / Fold change /veh OR2T12 /// OR2T33 /// OR2T8 (11738714_s_at) / RFU VCAN (11748164_a_at) / Fold change /veh VCAN (11748164_a_at) / RFU JSRP1 (11732532_at) / Fold change /veh JSRP1 (11732532_at) / RFU KRTAP10-11 (11738290_x_at) / Fold change /veh KRTAP10-11 (11738290_x_at) / RFU MYO3A (11730013_a_at) / Fold change /veh MYO3A (11730013_a_at) / RFU EBF3 (11725865_a_at) / Fold change /veh EBF3 (11725865_a_at) / RFU CAMK2N1 (11719241_x_at) / Fold change /veh CAMK2N1 (11719241_x_at) / RFU C5orf56 (11738088_a_at) / Fold change /veh C5orf56 (11738088_a_at) / RFU OLFML3 (11715873_a_at) / Fold change /veh OLFML3 (11715873_a_at) / RFU LOC100653217 /// NTM (11731650_a_at) / Fold change /veh LOC100653217 /// NTM (11731650_a_at) / RFU MAPK11 (11762145_a_at) / Fold change /veh MAPK11 (11762145_a_at) / RFU FIZ1 (11724087_x_at) / Fold change /veh FIZ1 (11724087_x_at) / RFU OASL (11726364_x_at) / Fold change /veh OASL (11726364_x_at) / RFU SOX15 (11748057_x_at) / Fold change /veh SOX15 (11748057_x_at) / RFU CD79A (11719716_a_at) / Fold change /veh CD79A (11719716_a_at) / RFU HIST1H1D (11736915_at) / Fold change /veh HIST1H1D (11736915_at) / RFU CASKIN2 (11723855_a_at) / Fold change /veh CASKIN2 (11723855_a_at) / RFU LOC730098 (11760151_x_at) / Fold change /veh LOC730098 (11760151_x_at) / RFU OR4N2 (11742367_at) / Fold change /veh OR4N2 (11742367_at) / RFU PRRT2 (11749266_a_at) / Fold change /veh PRRT2 (11749266_a_at) / RFU SNX32 (11753110_a_at) / Fold change /veh SNX32 (11753110_a_at) / RFU CDHR5 (11726645_a_at) / Fold change /veh CDHR5 (11726645_a_at) / RFU RCAN1 (11760418_a_at) / Fold change /veh RCAN1 (11760418_a_at) / RFU FAM167A (11723789_a_at) / Fold change /veh FAM167A (11723789_a_at) / RFU FAM26E (11764081_at) / Fold change /veh FAM26E (11764081_at) / RFU ISYNA1 (11749810_s_at) / Fold change /veh ISYNA1 (11749810_s_at) / RFU ACY1 (11761880_at) / Fold change /veh ACY1 (11761880_at) / RFU 11764098_at / Fold change /veh 11764098_at / RFU SAMD14 (11745864_x_at) / Fold change /veh SAMD14 (11745864_x_at) / RFU NPB (11741838_a_at) / Fold change /veh NPB (11741838_a_at) / RFU TMPRSS6 (11731388_a_at) / Fold change /veh TMPRSS6 (11731388_a_at) / RFU KRTAP10-2 (11738614_at) / Fold change /veh KRTAP10-2 (11738614_at) / RFU ARHGAP8 /// PRR5-ARHGAP8 (11727945_x_at) / Fold change /veh ARHGAP8 /// PRR5-ARHGAP8 (11727945_x_at) / RFU KRTAP5-7 /// NADSYN1 (11734609_at) / Fold change /veh KRTAP5-7 /// NADSYN1 (11734609_at) / RFU RASL12 (11751679_a_at) / Fold change /veh RASL12 (11751679_a_at) / RFU CDKN2B (11736163_a_at) / Fold change /veh CDKN2B (11736163_a_at) / RFU PRF1 (11729649_at) / Fold change /veh PRF1 (11729649_at) / RFU, ZNF638 /// ZNF638-IT1 / Fold change vs veh, ZNF638 /// ZNF638-IT1 / RFU, PANK3 / Fold change vs veh, PANK3 / RFU, SH3YL1 / Fold change vs veh, SH3YL1 / RFU, ZEB2 / Fold change vs veh, ZEB2 / RFU, NRIP1 / Fold change vs veh, NRIP1 / RFU, PTTG1IP / Fold change vs veh, PTTG1IP / RFU, CAPN2 / Fold change vs veh, CAPN2 / RFU, MED14 / Fold change vs veh, MED14 / RFU, SNORA58 / Fold change vs veh, SNORA58 / RFU, C1orf63 / Fold change vs veh, C1orf63 / RFU, LRRFIP1 / Fold change vs veh, LRRFIP1 / RFU, NDUFAF7 / Fold change vs veh, NDUFAF7 / RFU, SLC12A2 / Fold change vs veh, SLC12A2 / RFU, IBTK / Fold change vs veh, IBTK / RFU, ESF1 / Fold change vs veh, ESF1 / Fold change vs veh, TMEM50B / RFU, TAOK1 / Fold change vs veh, TAOK1 / RFU, ACBD3 / Fold change vs veh, ACBD3 / RFU, TMA16 / Fold change vs veh, TMA16 / RFU, RWDD3 / Fold change vs veh, RWDD3 / RFU, BCAT1 / Fold change vs veh, BCAT1 / RFU, EDEM3 / Fold change vs veh, EDEM3 / RFU, TMEM33 / Fold change vs veh, TMEM33 / RFU, WDR75 / Fold change vs veh, WDR75 / RFU, AHCTF1 / Fold change vs veh, AHCTF1 / RFU, TFRC / Fold change vs veh, TFRC / RFU, ZDHHC17 / Fold change vs veh, ZDHHC17 / RFU, NOM1 / Fold change vs veh, NOM1 / RFU, ARL8B / Fold change vs veh, ARL8B / RFU, ZBTB11 / Fold change vs veh, ZBTB11 / RFU, TAMM41 / Fold change vs veh, TAMM41 / RFU, KIAA1704 /// LOC100996395 / Fold change vs veh, KIAA1704 /// LOC100996395 / RFU, ING1 / Fold change vs veh, ING1 / RFU, TRMT61B / Fold change vs veh, TRMT61B / RFU, FUBP3 / Fold change vs veh, FUBP3 / RFU, TP53 / Fold change vs veh, TP53 / RFU, TNKS2 / Fold change vs veh, TNKS2 / RFU, ZFP14 / Fold change vs veh, ZFP14 / RFU, ACTR2 / Fold change vs veh, ACTR2 / RFU, PPP3R1 / Fold change vs veh, PPP3R1 / RFU, PIK3R1 / Fold change vs veh, PIK3R1 / RFU, HNRNPA1 / Fold change vs veh, HNRNPA1 / RFU, RNF170 / Fold change vs veh, RNF170 / RFU, ZNF28 / Fold change vs veh, ZNF28 / RFU, RNGTT / Fold change vs veh, RNGTT / RFU, OGT / Fold change vs veh, OGT / RFU, BRD1 / Fold change vs veh, BRD1 / RFU, MARS / Fold change vs veh, MARS / RFU, ZNF655 / Fold change vs veh, ZNF655 / RFU, FAHD1 / Fold change vs veh, FAHD1 / RFU, BDP1 / Fold change vs veh, BDP1 / RFU, LRRCC1 / Fold change vs veh, LRRCC1 / RFU, ARID1A / Fold change vs veh, ARID1A / RFU, ZNF146 / Fold change vs veh, ZNF146 / RFU, ZNF330 / Fold change vs veh, ZNF330 / RFU, GPN3 / Fold change vs veh, GPN3 / RFU, C9orf123 / Fold change vs veh, C9orf123 / RFU, N4BP2L2 / Fold change vs veh, N4BP2L2 / RFU, ARFIP1 / Fold change vs veh, ARFIP1 / RFU, FAM179B / Fold change vs veh, FAM179B / RFU, BCL10 / Fold change vs veh, BCL10 / RFU, UHRF1BP1L / Fold change vs veh, UHRF1BP1L / RFU, BET1 / Fold change vs veh, BET1 / RFU, CNOT2 / Fold change vs veh, CNOT2 / RFU, ZNF268 / Fold change vs veh, ZNF268 / Fold change vs veh, ZNF507 / RFU, DGCR2 / Fold change vs veh, DGCR2 / RFU, WDSUB1 / Fold change vs veh, WDSUB1 / Fold change vs veh, HSP90B1 /// MIR3652 / RFU, ADSS / Fold change vs veh, ADSS / RFU, GK / Fold change vs veh, GK / RFU, ZNF148 / Fold change vs veh, ZNF148 / RFU, TAF9 / Fold change vs veh, TAF9 / RFU, SLC1A5 / Fold change vs veh, SLC1A5 / RFU, SLMO2 / Fold change vs veh, SLMO2 / RFU, ABCC4 / Fold change vs veh, ABCC4 / RFU, LOC101060439 /// RAP1B / Fold change vs veh, LOC101060439 /// RAP1B / RFU, RFX7 / Fold change vs veh, RFX7 / RFU, GTPBP10 / Fold change vs veh, GTPBP10 / RFU, CNEP1R1 / Fold change vs veh, CNEP1R1 / RFU, BIVM-ERCC5 /// ERCC5 / Fold change vs veh, BIVM-ERCC5 /// ERCC5 / RFU, ILF3 / Fold change vs veh, ILF3 / RFU 11762660_at / Fold change /veh 11762660_at / RFU VCAN (11757783_s_at) / Fold change /veh VCAN (11757783_s_at) / RFU DDX43 (11728927_at) / Fold change /veh DDX43 (11728927_at) / RFU KRT8 (11758188_x_at) / Fold change /veh KRT8 (11758188_x_at) / RFU NKD1 (11759106_at) / Fold change /veh NKD1 (11759106_at) / RFU SRD5A1 (11742802_a_at) / Fold change /veh SRD5A1 (11742802_a_at) / RFU TPSAB1 /// TPSB2 (11721975_s_at) / Fold change /veh TPSAB1 /// TPSB2 (11721975_s_at) / RFU GSTM3 (11746129_a_at) / Fold change /veh GSTM3 (11746129_a_at) / RFU IL23R (11737362_x_at) / Fold change /veh IL23R (11737362_x_at) / RFU TMEM51 (11727254_a_at) / Fold change /veh TMEM51 (11727254_a_at) / RFU PIWIL2 (11732686_x_at) / Fold change /veh PIWIL2 (11732686_x_at) / RFU ORM1 (11744905_x_at) / Fold change /veh ORM1 (11744905_x_at) / RFU CCDC152 (11743942_at) / Fold change /veh CCDC152 (11743942_at) / RFU ECM1 (11717891_a_at) / Fold change /veh ECM1 (11717891_a_at) / RFU IL23R (11748794_a_at) / Fold change /veh IL23R (11748794_a_at) / RFU TNFAIP8L3 (11732012_x_at) / Fold change /veh TNFAIP8L3 (11732012_x_at) / RFU MBOAT4 (11741988_at) / Fold change /veh MBOAT4 (11741988_at) / RFU 11764193_at / Fold change /veh 11764193_at / RFU TMEM53 (11763286_at) / Fold change /veh TMEM53 (11763286_at) / RFU MAGEB2 (11727129_at) / Fold change /veh MAGEB2 (11727129_at) / RFU TMEM200A (11744735_a_at) / Fold change /veh TMEM200A (11744735_a_at) / RFU CCDC152 (11751479_a_at) / Fold change /veh CCDC152 (11751479_a_at) / RFU FAM211A (11726209_a_at) / Fold change /veh FAM211A (11726209_a_at) / RFU RGS16 (11746705_a_at) / Fold change /veh RGS16 (11746705_a_at) / RFU VCAN (11755009_s_at) / Fold change /veh VCAN (11755009_s_at) / RFU RHOB (11743442_s_at) / Fold change /veh RHOB (11743442_s_at) / RFU RGS16 (11720943_a_at) / Fold change /veh RGS16 (11720943_a_at) / RFU RGS16 (11720944_at) / Fold change /veh RGS16 (11720944_at) / RFU, VPS4B / Fold change vs veh, VPS4B / RFU, CREB1 / Fold change vs veh, CREB1 / RFU, DNAJC13 / Fold change vs veh, DNAJC13 / RFU, GNAQ / Fold change vs veh, GNAQ / RFU, CDK5R1 / Fold change vs veh, CDK5R1 / RFU, ZRANB3 / Fold change vs veh, ZRANB3 / RFU, CUL4A / Fold change vs veh, CUL4A / RFU, CCNY / Fold change vs veh, CCNY / RFU, UFL1 / Fold change vs veh, UFL1 / RFU, COG3 / Fold change vs veh, COG3 / RFU, DIAPH2 / Fold change vs veh, DIAPH2 / RFU, SKA2 / Fold change vs veh, SKA2 / RFU, AFF3 / Fold change vs veh, AFF3 / RFU, LMF1 / Fold change vs veh, LMF1 / RFU, IPO11 / Fold change vs veh, IPO11 / RFU, DFFB / Fold change vs veh, DFFB / RFU, FOXP1 / Fold change vs veh, FOXP1 / RFU, CARD8 / Fold change vs veh, CARD8 / RFU, STRN3 / Fold change vs veh, STRN3 / RFU, ADK / Fold change vs veh, ADK / RFU, RASSF2 / Fold change vs veh, RASSF2 / RFU, WIPF1 / Fold change vs veh, WIPF1 / RFU, LARP1B / Fold change vs veh, LARP1B / RFU, RASA1 / Fold change vs veh, RASA1 / RFU, RB1 / Fold change vs veh, RB1 / RFU, PPFIA1 / Fold change vs veh, PPFIA1 / RFU, MAT2A / Fold change vs veh, MAT2A / RFU, CCT5 / Fold change vs veh, CCT5 / RFU, WDR92 / Fold change vs veh, WDR92 / RFU, CUX1 / Fold change vs veh, CUX1 / RFU, TTC7A / Fold change vs veh, TTC7A / RFU, TMEM135 / Fold change vs veh, TMEM135 / RFU, DEPTOR / Fold change vs veh, DEPTOR / RFU, CPM / Fold change vs veh, CPM / RFU, DNAJB6 / Fold change vs veh, DNAJB6 / RFU, CACNA2D3 / Fold change vs veh, CACNA2D3 / RFU, DTX4 / Fold change vs veh, DTX4 / RFU, TFCP2 / Fold change vs veh, TFCP2 / RFU, GMCL1 /// GMCL1P1 / Fold change vs veh, GMCL1 /// GMCL1P1 / RFU, AEBP2 / Fold change vs veh, AEBP2 / RFU, SNHG1 /// SNORD22 /// SNORD25 /// SNORD26 /// SNORD27 /// SNORD28 /// SNORD29 /// SNORD31 / Fold change vs veh, SNHG1 /// SNORD22 /// SNORD25 /// SNORD26 /// SNORD27 /// SNORD28 /// SNORD29 /// SNORD31 / Fold change (Aza/veh), C12orf56 (ProbeSet 11735607_a_at) / Fold change (ACY-1035/veh), C12orf56 (ProbeSet 11735607_a_at) / Fold change (Aza/veh), FGFR1OP (ProbeSet 11751329_s_at) / Fold change (ACY-1035/veh), FGFR1OP (ProbeSet 11751329_s_at) / Fold change (Aza/veh), VPS36 (ProbeSet 11739960_a_at) / Fold change (ACY-1035/veh), VPS36 (ProbeSet 11739960_a_at) / RFU SYPL1 (11715823_x_at) / Fold change /veh SYPL1 (11715823_x_at) / RFU IGFBP7 (11715501_s_at) / Fold change /veh IGFBP7 (11715501_s_at) / RFU REEP3 (11722064_at) / Fold change /veh REEP3 (11722064_at) / RFU IGLL1 (11728026_x_at) / Fold change /veh IGLL1 (11728026_x_at): dose or concentration left out as unconfirmed",
  "conditions": "gene FGFR1OP; Azacitidine vs DMSO; LIST F",
  "data": [
    {"smiles": "Nc1ncn([C@@H]2O[C@H](CO)[C@@H](O)[C@H]2O)c(=O)n1", "note": "[azacitidine]", "values": [
      {"measurement": "Fold change (Aza/veh), FGFR1OP (ProbeSet 11751329_s_at)", "value": 0.95}
    ]}
  ]
}
